Source: US20100099677A1, “Compounds, Compositions and Methods Comprising Thiazole Derivatives” (Institute for OneWorld Health, priority 2008, published 2010)

The compounds below were run against T1, CFTR (Homo sapiens, UniProt P13569) (assay: T84 assay (FLIPR membrane potential dye, forskolin/IBMX-stimulated CFTR channel activity)). Details: human colonic T84 cells, average of at least 2 runs unless otherwise indicated.
T1 construct: results in the phosphorylation and opening of CFTR anion channels; host or cells: Human colonic T84 cells
Format: cell-based
Description: (§1) For example, Human colonic T84 cells can be acquired from the European Collection of Cell Cultures (ECACC) and grown in standard culture conditions as described by the supplier. On the day before assay 25,000 T84 cells per well are plated into standard black walled, clear bottom 384-well assay plates in standard growth medium consisting of DMEM:F12 with 10% FBS and incubated overnight. On the day of the assay the plates are washed using a standard assay buffer (HBSS with 10 mM Hepes) and incubated for 15 minutes in serum free cell culture medium before the addition of a commercially available membrane potential sensitive fluorescent dye (FLIPR Red membrane potential dye, Molecular Devices Corporation). T84 cells are incubated with the FLIPR Red membrane potential dye for 45 minutes in the presence and absence of test compound before being transferred to a commercially available fluorescence imaging plate reader (FLIPR384, Molecular Devices Corporation). Fluorescence levels are monitored continuously every second for 150 seconds; after an initial 10 second baseline, CFTR channel activity is stimulated through the addition of 10 μM forskolin in the presence of 100 μM of the phosphodiesterase inhibitor iso-butyl-methylxanthine (IBMX). Addition of the forskolin leads to the activation of intracellular adenylyl cylase 1, elevating cAMP levels and results in the phosphorylation and opening of CFTR anion channels. CFTR channel opening causes chloride ion efflux and subsequent depolarization of the cells, which is measured by an increase in fluorescence. CFTR inhibitor compounds prevent cell depolarization and the associated increase in fluorescence.
as §1, with “Human colonic” for “For example, Human colonic”, “T84 cells are acquired from” for “T84 cells can be acquired from”, “(ECACC) and are grown in” for “(ECACC) and grown in”

T1 sequence (P13569 whole entry): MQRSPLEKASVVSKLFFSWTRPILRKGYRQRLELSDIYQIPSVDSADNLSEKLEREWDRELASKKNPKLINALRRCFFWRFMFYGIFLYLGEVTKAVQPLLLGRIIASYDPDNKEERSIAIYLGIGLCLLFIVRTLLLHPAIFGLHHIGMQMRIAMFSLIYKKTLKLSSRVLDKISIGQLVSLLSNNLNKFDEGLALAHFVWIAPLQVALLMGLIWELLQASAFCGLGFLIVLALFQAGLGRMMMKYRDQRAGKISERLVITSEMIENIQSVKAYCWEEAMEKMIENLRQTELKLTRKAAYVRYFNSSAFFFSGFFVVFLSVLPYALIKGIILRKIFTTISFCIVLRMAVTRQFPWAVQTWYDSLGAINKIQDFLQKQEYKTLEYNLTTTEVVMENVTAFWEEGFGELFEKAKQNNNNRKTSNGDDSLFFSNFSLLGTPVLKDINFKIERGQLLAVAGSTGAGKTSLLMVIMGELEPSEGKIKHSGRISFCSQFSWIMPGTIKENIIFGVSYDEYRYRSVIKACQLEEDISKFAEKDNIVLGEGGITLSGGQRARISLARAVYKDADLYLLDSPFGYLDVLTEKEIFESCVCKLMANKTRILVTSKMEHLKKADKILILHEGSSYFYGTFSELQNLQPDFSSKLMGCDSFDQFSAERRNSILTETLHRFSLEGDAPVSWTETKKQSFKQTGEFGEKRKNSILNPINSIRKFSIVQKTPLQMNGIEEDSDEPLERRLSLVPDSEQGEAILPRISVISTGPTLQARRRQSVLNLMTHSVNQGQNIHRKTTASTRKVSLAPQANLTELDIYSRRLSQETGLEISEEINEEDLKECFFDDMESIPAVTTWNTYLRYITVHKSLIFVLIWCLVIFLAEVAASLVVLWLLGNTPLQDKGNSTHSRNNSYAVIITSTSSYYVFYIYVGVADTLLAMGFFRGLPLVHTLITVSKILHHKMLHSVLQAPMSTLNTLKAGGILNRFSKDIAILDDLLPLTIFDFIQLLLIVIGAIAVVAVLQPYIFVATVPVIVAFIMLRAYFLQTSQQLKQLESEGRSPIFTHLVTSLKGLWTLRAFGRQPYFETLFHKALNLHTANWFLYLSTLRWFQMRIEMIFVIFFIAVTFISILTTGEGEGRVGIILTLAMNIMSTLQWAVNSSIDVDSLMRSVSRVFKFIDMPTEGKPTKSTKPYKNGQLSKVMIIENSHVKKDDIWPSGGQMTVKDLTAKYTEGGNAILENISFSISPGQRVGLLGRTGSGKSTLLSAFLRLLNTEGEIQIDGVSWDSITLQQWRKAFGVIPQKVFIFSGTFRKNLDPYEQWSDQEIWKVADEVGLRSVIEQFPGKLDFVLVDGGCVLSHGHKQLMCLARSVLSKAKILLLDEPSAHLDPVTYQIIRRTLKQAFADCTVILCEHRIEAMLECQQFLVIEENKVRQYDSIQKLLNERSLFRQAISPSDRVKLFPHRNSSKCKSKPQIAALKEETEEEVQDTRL

Structure (SMILES) | IC50 [µM]
O=C(c1nc(-c2cc(Br)c(O)c(Br)c2O)cs1)N1CCC(Cc2ccccc2)CC1 [Compound 68, (4-Benzylpiperidin-1-yl)(4-(3,5-dibromo-2,4-dihydroxyphenyl)thiazol-2-yl)methanone] | 4.78
O=C(c1nc(-c2cc(Cl)c(O)c(Cl)c2)cs1)N1CCN(c2cccc(C(F)(F)F)c2)CC1 [Compound 74, (4-(3,5-Dichloro-4-hydroxyphenyl)thiazol-2-yl)(4-(3-(trifluoromethyl)phenyl)piperazin-1-yl)methanone] | 20
O=C(c1nc(-c2cc(Br)c(O)c(Br)c2O)cs1)N1CCN(c2cccc(C(F)(F)F)c2)CC1 [Compound 82, (4-(3,5-dibromo-2,4-dihydroxyphenyl)thiazol-2-yl)(4-(3-(trifluoromethyl)phenyl)piperazin-1-yl)methanone] | 12.6
O=C(NCc1cccc(OC(F)(F)F)c1)c1csc(-c2cc(Cl)c(O)c(Cl)c2)n1 [Compound 80, 2-(3,5-Dichloro-4-hydroxyphenyl)-N-(3-(trifluoromethoxy)benzyl)thiazole-4-carboxamide] | 15
O=C(NCc1ccc(Oc2ccccc2)cc1)c1nc(-c2cc(Cl)c(O)c(Cl)c2)cs1 [Compound 76, 4-(3,5-Dichloro-4-hydroxyphenyl)-N-(4-phenoxybenzyl)thiazole-2-carboxamide] | 29.5
O=C(NCc1ccc(Oc2ccccc2)cc1)c1nc(-c2cc(Br)c(O)c(Br)c2)cs1 [Compound 75, 4-(3,5-Dibromo-4-hydroxyphenyl)-N-(4-phenoxybenzyl)thiazole-2-carboxamide] | 23.9
O=C(O)CCCOc1c(-c2csc(C(=O)N3CCC(Cc4ccccc4)CC3)n2)cc(Br)c(O)c1Br [Compound 89, 4-(6-(2-(4-Benzylpiperidine-1-carbonyl)thiazol-4-yl)-2,4-dibromo-3-hydroxyphenoxy)butanoic acid] | 8.79
Cc1cccc(COc2c(-c3csc(C(=O)N4CCC(Cc5ccccc5)CC4)n3)cc(Br)c(O)c2Br)n1 [Compound 88, (4-benzylpiperidin-1-yl)(4-(3,5-dibromo-4-hydroxy-2-((6-methylpyridin-2-yl)methoxy)phenyl)thiazol-2-yl)methanone] | 15.5
O=C(c1nc(-c2cc(Br)c(O)c(Br)c2OCCN2CCOCC2)cs1)N1CCC(Cc2ccccc2)CC1 [Compound 86, (4-benzylpiperidin-1-yl)(4-(3,5-dibromo-4-hydroxy-2-(2-morpholinoethoxy)phenyl)thiazol-2-yl)methanone] | 3.03
CN(Cc1cccc(C(F)(F)F)c1)C(=O)c1nc(-c2cc(Cl)c(O)c(Cl)c2)cs1 [Compound 67, 4-(3,5-Dichloro-4-hydroxyphenyl)-N-methyl-N-(3-(trifluoromethyl)benzyl)thiazole-2-carboxamide] | 4.04
O=C(c1nc(-c2cc(Cl)c(O)c(Cl)c2)cs1)N1CCC(Cc2ccccc2)CC1 [Compound 70, (4-benzylpiperidin-1-yl)(4-(3,5-dichloro-4-hydroxyphenyl)thiazol-2-yl)methanone] | 8.95
CCOC(=O)CCCOc1c(-c2csc(C(=O)N3CCC(Cc4ccccc4)CC3)n2)cc(Br)c(O)c1Br [Compound 83, Ethyl 4-(6-(2-(4-benzylpiperidine-1-carbonyl)thiazol-4-yl)-2,4-dibromo-3-hydroxyphenoxy)butanoate] | 4.2
O=C(c1nc(-c2cc(Br)c(O)c(Br)c2)cs1)N1CCN(c2cccc(C(F)(F)F)c2)CC1 [Compound 73, (4-(3,5-Dibromo-4-hydroxyphenyl)thiazol-2-yl)(4-(3-(trifluoromethyl)phenyl)piperazin-1-yl)methanone] | 12.3
O=C(NCc1cccc(OC(F)(F)F)c1)c1nc(-c2cc(Br)c(O)c(Br)c2O)cs1 [Compound 78, 4-(3,5-dibromo-2,4-dihydroxyphenyl)-N-(3-(trifluoromethoxy)benzyl)thiazole-2-carboxamide] | 2.56
O=C(c1nc(-c2cc(Br)c(O)c(Br)c2)cs1)N1CCC(Cc2ccccc2)CC1 [Compound 72, (4-Benzylpiperidin-1-yl)[4-(3,5-dibromo-4-hydroxyphenyl)thiazol-2-yl]methanone] | 11.1
O=C(NC(c1ccccc1)c1ccccc1)c1nc(-c2cc(Cl)c(O)c(Cl)c2)cs1 [Compound 69, N-Benzhydryl-4-(3,5-dichloro-4-hydroxyphenyl)thiazole-2-carboxamide] | 6.51
O=C(NC(c1ccccc1)c1ccccc1)c1nc(-c2cc(Br)c(O)c(Br)c2)cs1 [Compound 71, N-Benzhydryl-4-(3,5-dibromo-4-hydroxyphenyl)thiazole-2-carboxamide] | 9.24
COCCOCCOc1c(-c2csc(C(=O)N3CCC(Cc4ccccc4)CC3)n2)cc(Br)c(O)c1Br [Compound 87, (4-benzylpiperidin-1-yl)(4-(3,5-dibromo-4-hydroxy-2-(2-(2-methoxyethoxy)ethoxy)phenyl)thiazol-2-yl)methanone] | 1.73
O=C(NCC(c1ccccc1)c1ccccc1)c1nc(-c2cc(Br)c(O)c(Br)c2O)cs1 [Compound 81, 4-(3,5-dibromo-2,4-dihydroxyphenyl)-N-(2,2-diphenylethyl)thiazole-2-carboxamide] | 4.22
O=C(NCc1ccc(Oc2ccccc2)cc1)c1nc(-c2cc(Br)c(O)c(Br)c2O)cs1 [Compound 79, 4-(3,5-dibromo-2,4-dihydroxyphenyl)-N-(4-phenoxybenzyl)thiazole-2-carboxamide] | 11.5
